Results: paper PMC11842588, “A first-in-class selective inhibitor of ERK1/2 and ERK5 overcomes drug resistance with a single-molecule strategy” (Signal Transduction and Targeted Therapy, 2025)

Key:
[1] = molecular target: ERK5 (Homo sapiens, UniProt Q13164); test: ADP-Glo kinase assay; format: biochemical; conditions: for inhibition at 0.5 µM: read-out: Enzyme inhibitory activity (500 nM, %) ERK5
Procedure: (§1) The full-length human ERK1 or ERK2 with His-tag was cloned into a pET28a vector. hERK1/2 were expressed in Escherichia coli BL21(DE3), and then were purified using sequential Ni-NTA and Superdex 200 column steps. The SEC purified sample was then concentrated to 10 mg/ml and stored at −80 °C with buffer containing 20 mM HEPES pH 7.5, 150 mM NaCl. ERK5 (residues 48–395) containing His and GST tags was cloned into the pFastBac vector, and the recombinant plasmid was extracted. The recombinant plasmid was transformed into the DH10bac strain, and monoclonal was selected for culture. The recombinant Bacmid was then extracted according to the instructions of the Baculovirus Shuttle Vector Bacmid Mini Preparation Kit (Beyotime) and validated by PCR. 1 × 10^6/well Sf9 cells were counted for transfection and then amplified to obtain P3 ERK5 recombinant baculovirus. It was added to 2 × 10^6/mL Sf9 cells and incubated at 27 °C for 72 h on a shaker to express ERK5. Cells were lysed and supernatant was collected on a Ni-NTA for purification, and a 250 mM imidazole eluate was collected. Next, digestion by TEV protease was performed overnight while dialysis was performed in approximately 1000 mL of imidazole-free buffer. The digested ERK5 protein was sequentially purified on the Ni-NTA and GST-tag Purification Resin, followed by size exclusion chromatography on a Superdex 75 column. ERK5 protein was collected and concentrated to 12 mg/ml and stored at −80 °C in buffer containing 50 mM HEPES pH 8.0, 200 mM NaCl, 10% (v/v) glycerol.
(§2) ERK1/2/5 kinase activity assay was conducted using ADP-Glo™ Kinase Assay. 2× ATP solution and 2× kinase & Metal solution were prepared using assay buffer were prepared using assay buffer containing 50 mM Hepes pH 7.5, 10 mM MgCl2; 0.01% Brij35, 1 mM EGTA, 2 mM DTT. Transfer 40 nL compounds to 384 assay plate. Add 2 μL of 2× kinase & Metal solution were mixed and incubated in a 384-assay plate for 10 min at 25 °C. 2 μL of 2×ATP solution was added and incubated at 25 °C for 60 min. And then, each well was supplemented with 4 µL of ADP-Glo^TM reagent and incubated at 25 °C for 40 min. Subsequently, 8 µL of Kinase Detection Reagent was added and incubated at 25 °C for 40 min. Finally, the luminescence signals were recorded. The IC50 values were calculated using GraphPad Prism 9.5 software.

[2] = molecular target: ERK1 (Homo sapiens, UniProt P27361); test: ADP-Glo kinase assay; format: biochemical; conditions: for inhibition at 0.5 µM: read-out: Enzyme inhibitory activity (500 nM, %) ERK1
Procedure: as §1, §2

[3] = molecular target: ERK2 (Homo sapiens, UniProt P28482); test: ADP-Glo kinase assay; format: biochemical; conditions: for inhibition at 0.5 µM: read-out: Enzyme inhibitory activity (500 nM, %) ERK2
Procedure: as §1, §2

[4] = system: MDA-MB-231 cells; test: MTT cell viability assay; format: cell-based; conditions: 10 μM
Procedure: (§3) MDA-MB-468 and MDA-MB-436 cells were cultured in Leibovitz’s L-15 medium supplemented with 10% fetal bovine serum. […] All of the cells were cultured at 37 °C in a humidified atmosphere containing 5% CO2.
(§4) Cancer cells were seeded in a density in 96-well plates (2 × 10^3 cells per well). After incubation for 24 h, cancer cells were treated with compounds (0–20 μM) for 72 h.

[5] = system: MDA-MB-468 cells; test: MTT cell viability assay; format: cell-based; conditions: 10 μM
Procedure: as §3, §4

ERK2, sequence (P28482 whole entry): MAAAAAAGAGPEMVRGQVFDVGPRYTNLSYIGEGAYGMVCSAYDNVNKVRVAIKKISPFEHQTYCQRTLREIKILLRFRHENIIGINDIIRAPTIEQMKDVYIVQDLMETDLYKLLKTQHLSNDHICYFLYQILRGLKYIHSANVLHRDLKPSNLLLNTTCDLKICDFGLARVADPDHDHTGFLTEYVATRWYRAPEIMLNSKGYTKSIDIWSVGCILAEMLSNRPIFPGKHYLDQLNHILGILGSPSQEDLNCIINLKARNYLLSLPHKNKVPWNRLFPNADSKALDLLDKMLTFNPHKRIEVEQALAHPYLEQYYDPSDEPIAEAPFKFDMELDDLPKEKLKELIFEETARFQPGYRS
ERK1, sequence (P27361 whole entry): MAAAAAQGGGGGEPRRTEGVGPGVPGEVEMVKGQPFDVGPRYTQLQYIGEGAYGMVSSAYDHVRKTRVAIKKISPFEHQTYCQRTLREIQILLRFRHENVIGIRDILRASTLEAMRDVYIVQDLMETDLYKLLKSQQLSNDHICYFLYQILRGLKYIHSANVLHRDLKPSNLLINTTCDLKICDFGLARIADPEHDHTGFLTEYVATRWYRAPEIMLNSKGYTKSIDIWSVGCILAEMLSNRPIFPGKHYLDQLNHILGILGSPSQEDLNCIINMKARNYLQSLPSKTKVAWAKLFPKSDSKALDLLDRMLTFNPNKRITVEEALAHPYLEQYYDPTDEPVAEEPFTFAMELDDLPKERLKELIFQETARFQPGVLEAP
ERK5, sequence (Q13164 whole entry, the tested form may be a part): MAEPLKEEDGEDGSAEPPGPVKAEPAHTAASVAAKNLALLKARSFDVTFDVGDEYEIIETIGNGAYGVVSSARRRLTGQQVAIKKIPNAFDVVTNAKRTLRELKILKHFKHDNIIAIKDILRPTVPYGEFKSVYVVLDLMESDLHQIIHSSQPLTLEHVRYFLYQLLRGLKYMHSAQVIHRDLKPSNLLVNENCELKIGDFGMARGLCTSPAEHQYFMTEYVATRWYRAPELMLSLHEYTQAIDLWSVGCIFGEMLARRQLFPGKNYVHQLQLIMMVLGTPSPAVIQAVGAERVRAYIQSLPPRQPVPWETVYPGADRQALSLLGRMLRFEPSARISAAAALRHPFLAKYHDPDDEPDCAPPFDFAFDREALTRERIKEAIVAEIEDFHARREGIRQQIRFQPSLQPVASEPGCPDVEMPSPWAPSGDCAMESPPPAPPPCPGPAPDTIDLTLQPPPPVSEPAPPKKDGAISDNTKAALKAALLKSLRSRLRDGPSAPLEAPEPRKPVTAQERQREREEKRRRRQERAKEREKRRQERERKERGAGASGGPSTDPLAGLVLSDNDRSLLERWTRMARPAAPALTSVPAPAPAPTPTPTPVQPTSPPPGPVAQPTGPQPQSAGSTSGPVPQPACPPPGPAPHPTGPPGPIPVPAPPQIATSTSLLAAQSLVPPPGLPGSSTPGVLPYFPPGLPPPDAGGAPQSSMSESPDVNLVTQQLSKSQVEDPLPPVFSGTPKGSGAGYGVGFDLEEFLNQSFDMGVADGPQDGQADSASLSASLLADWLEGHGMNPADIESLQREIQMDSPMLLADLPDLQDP

Row | SMILES | Enzyme inhibitory activity (500 nM, %) ERK5 [1] | Enzyme inhibitory activity (500 nM, %) ERK1 [2] | Enzyme inhibitory activity (500 nM, %) ERK2 [3] | Anti-proliferative activity (10 μM, %) MDA-MB-231 [4] | Anti-proliferative activity (10 μM, %) MDA-MB-468 [5] | inhibition at 0.5 µM [1] | inhibition at 0.5 µM [2] | inhibition at 0.5 µM [3]
1 | COc1ccc(NC(=O)c2cc(-c3nc(Nc4ccnn4C)ncc3Cl)cs2)cc1OC [6ag, 4-(5-chloro-2-((1-methyl-1H-pyrazol-5-yl)amino)pyri-midin-4-yl)-N-(3,4-dimethoxyphenyl)thiophene-2-carboxamide] | 65.13 ± 0.90% | 92.13 ± 1.04% | 94.53 ± 1.21% | 33.67 ± 0.08% | 25.61 ± 0.45% | – | – | –
2 | Cn1nccc1Nc1ncc(Cl)c(-c2csc(C(=O)Nc3cccc(Br)c3)c2)n1 [6l] | 32.34 ± 0.89% | 47.12 ± 9.23% | 46.65 ± 0.32% | 33.90 ± 1.22% | 23.35 ± 2.37% | – | – | –
3 | Cn1nccc1Nc1ncc(Cl)c(-c2csc(C(=O)NCc3cnccn3)c2)n1 [6h] | – | – | – | 23.65 ± 1.27% | 7.43 ± 3.45% | – | – | –
4 | Cn1nccc1Nc1ncc(Cl)c(-c2csc(C(=O)Nc3cccc(F)c3)c2)n1 [6j] | – | – | – | 25.73 ± 0.57% | 10.11 ± 0.76% | – | – | –
5 | Cn1nccc1Nc1ncc(Cl)c(-c2csc(C(=O)Nc3cccc(C(F)(F)F)c3)c2)n1 [6m] | 35.45 ± 1.32% | 50.98 ± 3.23% | 53.43 ± 0.43% | 34.62 ± 1.24% | 30.41 ± 0.68% | – | – | –
6 | CCc1cccc(NC(=O)c2cc(-c3nc(Nc4ccnn4C)ncc3Cl)cs2)c1 [6r] | 67.34 ± 3.20% | 88.34 ± 1.78% | 89.45 ± 1.55% | 15.53 ± 0.90% | 30.21 ± 1.11% | – | – | –
7 | Cn1nccc1Nc1ncc(Cl)c(-c2csc(C(=O)NC3CCSCC3)c2)n1 [6d] | 34.57 ± 1.42% | 93.12 ± 1.89% | 91.52 ± 0.31% | 37.21 ± 0.72% | 23.35 ± 2.34% | – | – | –
8 | CN1CCN(C(=O)c2cc(-c3nc(Nc4ccnn4C)ncc3Cl)cs2)CC1 [6b] | 28.02 ± 1.34% | 40.45 ± 1.23% | 39.03 ± 2.13% | 3.15 ± 1.22% | 25.81 ± 2.43% | – | – | –
9 | Cn1nccc1Nc1ncc(Cl)c(-c2csc(C(=O)Nc3cccc(OC(F)(F)F)c3)c2)n1 [6n] | 18.64 ±2.32% | 67.08 ± 0.98% | 66.54 ± 2.11% | 43.93 ± 0.21% | 33.21 ± 0.54% | – | – | –
10 | CC(C)N1CCN(C(=O)c2cc(-c3nc(Nc4ccnn4C)ncc3Cl)cs2)CC1 [6c] | 19.12 ± 2.15% | 21.57 ± 2.34% | 14.38 ± 0.24% | 5.71 ± 1.21% | 3.51 ± 0.77% | – | – | –
11 | Cn1nccc1Nc1ncc(Cl)c(-c2csc(C(=O)N[C@H]3CC[C@H](O)CC3)c2)n1 [6f] | 35.94 ± 1.21% | 89.31 ± 0.87% | 89.54 ± 2.31% | 11.85 ± 2.31% | 57.68 ± 1.09% | – | – | –
12 | Cn1nccc1Nc1ncc(Cl)c(-c2csc(C(=O)Nc3ccc(C(F)(F)F)cc3)c2)n1 [6y] | 23.21 ± 3.45% | 50.78 ± 0.89% | 51.08 ±2.31% | 8.87 ± 1.11% | 9.83 ± 0.93% | – | – | –
13 | Cn1nccc1Nc1ncc(Cl)c(-c2csc(C(=O)NN3CCOCC3)c2)n1 [6e] | 70.61 ± 0.98% | 97.82 ± 0.43% | 99.00 ± 0.56% | 11.49 ± 1.48% | 0.70 ± 0.45% | – | – | –
14 | CN1CCN(NC(=O)c2cc(-c3nc(Nc4ccnn4C)ncc3Cl)cs2)CC1 [6a, 4-(5-chloro-2-((1-methyl-1H-pyrazol-5-yl)amino)pyrimidin-4-yl)-N-(4-methylpiperazin-1-yl)thiophene-2-carboxamide] | – | – | – | 15.06 ± 0.35% | 10.78 ± 1.32% | 63.8 ± 0.32% | 95.72 ± 0.65% | 97.4 ± 3.45%
15 | CC(C)Oc1ccc(NC(=O)c2cc(-c3nc(Nc4ccnn4C)ncc3Cl)cs2)cc1 [6ae] | 61.02 ± 1.22% | 93.45 ± 1.80% | 95.32 ± 0.08% | 15.96 ± 0.09% | 4.62 ± 0.89% | – | – | –
16 | Cc1cc(NC(=O)c2cc(-c3nc(Nc4cccc(CN(C)C)c4)ncc3Cl)cs2)ccn1 [18j, 4-(5-chloro-2-((3-((dimethylamino)methyl)phenyl)amino)pyrimidin-4-yl)-N-(2-methylpyridin-4-yl)thiophene-2-carboxamide] | – | – | – | 39.25 ± 0.21% | 59.17 ± 2.12% | 81.8 ± 2.1% | 7.98 ± 0.6% | 5.97 ± 1.02%
17 | COc1ccc(NC(=O)c2cc(-c3nc(Nc4c(C)nn(C)c4C)ncc3Cl)cs2)cc1 [9d, 4-(5-chloro-2-((1,3,5-trimethyl-1H-pyrazol-4-yl)amino)pyrimidin-4-yl)-N-(4-methoxyphenyl)thio-phene-2-carboxamide] | 23.12 ± 3.21% | 45.29 ± 1.30% | 43.22 ± 0.23% | 7.54 ± 1.23% | 24.33 ± 0.84% | – | – | –
18 | Cc1cc(NC(=O)c2cc(-c3nc(Nc4ccnn4C)ncc3Cl)cs2)ccn1 [6g] | 73.61 ± 3.12% | 70.32 ± 0.91% | 72.75 ± 2.14% | 6.82 ± 2.13% | 20.23 ± 0.32% | – | – | –
19 | COc1cc(N2CCN(C)CC2)ccc1NC(=O)c1cc(-c2nc(Nc3ccnn3C)ncc2Cl)cs1 [H1] | – | – | – | – | – | 59.5% | 62.5% | 64.2%
20 | COc1ccc(NC(=O)c2cc(-c3nc(Nc4cccc(N(C)C)c4)ncc3Cl)cs2)cc1 [9h] | 65.54 ± 0.88% | 77.02 ± 3.21% | 78.90 ± 2.31% | 11.21 ± 0.47% | 20.15 ± 0.77% | – | – | –
21 | CN(C)Cc1cccc(Nc2ncc(Cl)c(-c3csc(C(=O)Nc4ccncn4)c3)n2)c1 [18i] | 71.14 ± 0.43% | 2.13 ± 1.56% | -1.29 ± 0.02% | 41.35 ± 1.20% | 30.29 ± 0.83% | – | – | –
22 | Cn1nccc1Nc1ncc(Cl)c(-c2csc(C(=O)Nc3ccccc3)c2)n1 [6i] | – | – | – | 5.65 ± 0.22% | -12.07 ± 2.31% | – | – | –
23 | CN(C)Cc1cccc(Nc2ncc(Cl)c(-c3csc(C(=O)Nc4cccc(N(C)C)c4)c3)n2)c1 [18d] | 78.85 ± 2.67% | – | 23.97 ± 0.90% | 85.64 ± 1.02% | 50.45 ± 2.12% | – | – | –
